The values that follow come from patent US20230014181A1, “CULTURE SYSTEM AND METHODS FOR IMPROVED MODELING OF NEUROLOGICAL CONDITIONS” (Genentech, Inc., priority 2021, published 2023).

Counter-ions that a name gives are not always drawn. Like-named read-outs stand apart in the source and are kept apart here.

The subject of assay [1] is human iPSC neurons, astrocytes and microglia treated with 5 μM sAβ42s. The experiment in a line: Focused small molecule screen, triple culture (neuron, astrocyte, microglia), rescue from sAβ42s toxicity. It is filed as cell-based. Conditions: for percent rescue from sAβ42s toxicity at 0.78 µM / percent rescue from sAβ42s toxicity at 3.13 µM / percent rescue from sAβ42s toxicity at 12.5 µM / percent rescue from sAβ42s toxicity at 50 µM: Homo sapiens, iPSC. On the procedure: (§1) FIGS. 11A-11D show synapse % rescue versus MAP2% rescue (FIGS. 11A-11B) and beta III tubulin % rescue versus MAP2% rescue (FIGS. 11C-11D), in neurons and astrocytes (FIGS. 11A and 11C) or neurons, astrocytes, and microglia (FIGS. 11B and 11D) treated with 5 μM sAβ42s and small molecules from a focused screen of known neuroprotective agents at multiple concentrations (50 μM, 25 μM, 12.5 μM and 6.25 μM (double culture), 50 μM, 12.5 μM, 3.1 μM and 0.78 μM (triple culture). Small molecules that prevented toxicity in dendrites (MAP2), synapses (Synapsin 1/2), cell count (CUX2), or axons ([…]) at or above 30% were considered hits (red dotted line).
Frozen cells were thawed and immediately seeded at a density of 8,000 cells/well of a 384-well plate onto 8-week old neuron-astrocyte co-culture in Microglia media (BrainPhys™ neuronal media (Stem Cell Technologies) supplemented with 1× B27 with vitamin A, 1×N2 Plus Media Supplement (R&D Systems), 20 ng/mL BDNF, 20 ng/mL GDNF, 1 mM creatine, 200 nM L-ascorbic acid, 1 μg/mL mouse laminin, 0.5 mM GlutaMAX™ (Thermofisher), 0.5× penicillin-streptomycin, 1× normocin, 5 ng/mL TGF-β, 100 ng/mL human IL-34, 1.5 μg/mL cholesterol, 1 ng/mL gondoic acid, 100 ng/mL oleic acid, 460 μM thioglycerol, 1× insulin-transferrin-selenium, 25 ng/mL rhM-CSF, 5.4 μg/mL human insulin solution).
(§2) In double (neuron, astrocyte) and triple (neuron, astrocyte, microglia) cultures, each small molecule listed in Table 1 was tested in the AD model paradigm at up to four concentrations. Molecules that characterized ≥30% rescue in any of the four measurements of dendrites area (MAP2), synapses count (synapsin 1/2), or cell count (CUX2), or axon area (Beta III Tubulin; “BT3”)) were classified as hits (FIGS. 11A-11D, Table 2, and Table 3).

In assay [2] the test system is human iPSC neurons and astrocytes treated with 5 μM sAβ42s. The experiment in a line: Focused small molecule screen, double culture (neuron, astrocyte), rescue from sAβ42s toxicity, high content imaging. It is filed as cell-based. Conditions: double culture, 5 μM sAβ42s; for percent rescue from sAβ42s toxicity at 50 µM / percent rescue from sAβ42s toxicity at 25 µM: Homo sapiens, iPSC. How it is done:
as §1
Neurons from both NSC lines were evaluated by immunofluorescence staining. Briefly, cells were fixed with 4% PFA and 4% sucrose at room temperature for 20 minutes using Bravo automation. Fixed cells were then washed 2 times with PBS using Biotek 406 microplate washer (Beckman Coulter), followed by permeabilization and blocking by incubation with a solution containing 1×PBS, 0.1% Triton X-100, 2% donkey serum, and 1% BSA at room temperature for 30 minutes. Blocking solution was removed and cells were incubated with primary antibodies in blocking solution overnight at 4° C. After washing 6 times with PBS on Biotek 406 cell plate washer (Beckman Coulter), cells were then incubated with fluorophore-conjugated secondary antibodies for 1 hour at room temperature in the dark to avoid photobleaching. Cells were then washed 6 more times in with PBS before imaging. Fluorescent images were captured using IN Cell 6000 confocal microscope (GE Healthcare Life Sciences). The image analysis was performed with IN Cell 6000 analysis software.
Prior to experimentation, media volume in wells containing neurons was equalized with liquid handling automation (Bravo) in order to ensure precise control of concentrations. All Aβ42 oligomers, anti-Aβ, small molecules, inflammatory cytokines were prepared at 10× concentration and added to Neuronal Culture Media at an appropriate volume. For the repeated dosing experiments, the media were refreshed 50% at each dosing first, before adding Aβ42 oligomers, and/or anti-Aβ antibody at the specified final concentration.
as §2

The mark [3] stands for this setting: 50 μM compound, read-out: % B3T rescue.
[4] abbreviates: 50 μM compound, read-out: % Cux2 rescue.
Setting [5] is: 50 μM compound, read-out: % MAP2 rescue.
Setting [6] is: 50 μM compound, read-out: % Synapse rescue.

For `N#C/C(=C\c1ccc(O)c(O)c1)C(=O)OCCc1cccs1` [2-TEDC], in assay [1] (3.13 μM compound), the “% B3T rescue” value turned out to be 40%, the “% MAP2 rescue” value amounted to 22% and the “% Synapse rescue” value came to 15%. For the same compound, in assay [1] (12.50 μM compound), the “% B3T rescue” value is listed as 43%, the “% MAP2 rescue” value is 25% and the “% Synapse rescue” value is recorded as 17%. In addition, in assay [1] (50.00 μM compound), the “% B3T rescue” value was 73%, the “% MAP2 rescue” value is on record as 48% and the “% Synapse rescue” value is given as 40%. In assay [2] (50 μM compound), the “% B3T rescue” value amounted to 31%, the “% Cux2 rescue” value came to 16%, the “% MAP2 rescue” value is reported as 22% and the “% Synapse rescue” value is reported as 10%.

Take `O=c1cc(-c2ccccc2)oc2c(O)c(O)ccc12` [7,8-Dihydroxyflavone]: the percent rescue from sAβ42s toxicity at 50 µM is -14% in assay [2] (setting [3]), 42% in assay [2] (setting [4]), 6% in assay [2] (setting [5]) and -2% in assay [2] (setting [6]).

In the case of `Cc1ccc2c(c1)C(=O)[C@]1(O)CCN(c3ccccc3)C1=N2` [(S)-(−)-Blebbistatin], the “% B3T rescue” value in assay [1] (50.00 μM compound) is reported as 36%; in assay [2] (6.25 μM compound) it was 41%; in assay [2] (12.5 μM compound), 34%; in assay [2] (25 μM compound), 38%; in assay [2] (50 μM compound), 49%. The “% MAP2 rescue” value in assay [1] (50.00 μM compound) is 24%; in assay [2] (6.25 μM compound), 21%; in assay [2] (12.5 μM compound) it was 25%; in assay [2] (25 μM compound) it was 34%; in assay [2] (50 μM compound), 34%. Besides, the “% Synapse rescue” value is on record as 20% in assay [1] (50.00 μM compound); 19% in assay [2] (6.25 μM compound); 15% in assay [2] (12.5 μM compound); 13% in assay [2] (25 μM compound); 12% in assay [2] (50 μM compound). The “% Cux2 rescue” value in assay [2] (6.25 μM compound) is recorded as 10%; in assay [2] (12.5 μM compound), 3%; in assay [2] (25 μM compound), 5%; in assay [2] (50 μM compound), 23%.

For the compound `CN(C)[C@@H]1C(O)=C(C(N)=O)C(=O)[C@@]2(O)C(O)=C3C(=O)c4c(O)ccc(Cl)c4[C@@H](O)[C@H]3C[C@@H]12` [Demeclocydine hydrochloride, Demeclocycline hydrochloride], the percent rescue from sAβ42s toxicity at 25 µM in assay [2] (25 μM compound, read-out: % B3T rescue) stood at 35%; in assay [2] (25 μM compound, read-out: % Cux2 rescue), 6%; in assay [2] (25 μM compound, read-out: % MAP2 rescue) it was 23%; in assay [2] (25 μM compound, read-out: % Synapse rescue), 15%. Moreover, the percent rescue from sAβ42s toxicity at 50 µM was determined as 63% in assay [2] (setting [3]), 33% in assay [2] (setting [4]), 39% in assay [2] (setting [5]) and 27% in assay [2] (setting [6]).

On to `O=C1Nc2ccc(I)cc2/C1=C/c1cc(Br)c(O)c(Br)c1` [GW 5074], for which, in assay [2] (6.25 μM compound), the “% B3T rescue” value was 16%, the “% Cux2 rescue” value came out at 95%, the “% MAP2 rescue” value was 17% and the “% Synapse rescue” value is 8%. Besides, in assay [2] (12.5 μM compound), the “% B3T rescue” value is reported as 9%, the “% Cux2 rescue” value amounted to 76%, the “% MAP2 rescue” value was 12% and the “% Synapse rescue” value stood at 6%. Further, in assay [2] (25 μM compound), the “% B3T rescue” value is reported as 14%, the “% Cux2 rescue” value was found to be 115%, the “% MAP2 rescue” value is recorded as 19% and the “% Synapse rescue” value is given as 8%. Further, in assay [2] (50 μM compound), the “% B3T rescue” value amounted to 48%, the “% Cux2 rescue” value is 162%, the “% MAP2 rescue” value stood at 54% and the “% Synapse rescue” value is 8%.

As for `CN1C(=O)C(Cc2c[nH]c3ccccc23)NC1=S` (stereo not shown) [Necrostatin-1], in assay [2] (50 μM compound), the “% B3T rescue” value worked out at 11%, the “% Cux2 rescue” value is reported as 10%, the “% MAP2 rescue” value is on record as 37% and the “% Synapse rescue” value amounted to 15%.

Consider `COc1cc([C@@H]2c3cc4c(cc3[C@@H](O[C@@H]3O[C@@H]5CO[C@@H](c6cccs6)O[C@H]5[C@H](O)[C@H]3O)[C@H]3COC(=O)[C@H]23)OCO4)cc(OC)c1O` [Teniposide], for which the percent rescue from sAβ42s toxicity at 0.78 µM was 35% in assay [1] (0.78 μM compound, read-out: % B3T rescue); -7% in assay [1] (0.78 μM compound, read-out: % MAP2 rescue); 1% in assay [1] (0.78 μM compound, read-out: % Synapse rescue). The percent rescue from sAβ42s toxicity at 3.13 µM in assay [1] (3.13 μM compound, read-out: % B3T rescue) was 42%; in assay [1] (3.13 μM compound, read-out: % MAP2 rescue) it was -10%; in assay [1] (3.13 μM compound, read-out: % Synapse rescue), 5%. The percent rescue from sAβ42s toxicity at 12.5 µM in assay [1] (12.50 μM compound, read-out: % B3T rescue) was 50%; in assay [1] (12.50 μM compound, read-out: % MAP2 rescue), -17%; in assay [1] (12.50 μM compound, read-out: % Synapse rescue), 3%. The percent rescue from sAβ42s toxicity at 50 µM in assay [1] (50.00 μM compound, read-out: % B3T rescue) is 52%; in assay [1] (50.00 μM compound, read-out: % MAP2 rescue) it was -19%; in assay [1] (50.00 μM compound, read-out: % Synapse rescue) it was 3%.

Turning to `CC(/C=C/C(=O)NO)=C\[C@@H](C)C(=O)c1ccc(N(C)C)cc1` [Trichostatin A], in assay [1] (12.50 μM compound), the “% B3T rescue” value turned out to be 31%, the “% MAP2 rescue” value was −18% and the “% Synapse rescue” value is 2%. Further, in assay [1] (50.00 μM compound), the “% B3T rescue” value worked out at 41%, the “% MAP2 rescue” value is given as −13% and the “% Synapse rescue” value came out at 1%.

As to `Cc1c(C)c(NCC(=O)N(C)C2CCN(Cc3ccc(C(N)=O)cc3)CC2)c(C)c(C)c1N` [sun11602], the “% B3T rescue” value in assay [1] (3.13 μM compound) was found to be 33%; in assay [1] (12.50 μM compound), 43%; in assay [1] (50.00 μM compound), 47%. The “% MAP2 rescue” value in assay [1] (3.13 μM compound) is recorded as 10%; in assay [1] (12.50 μM compound), 19%; in assay [1] (50.00 μM compound), 14%. For the same compound, the results for the “% Synapse rescue” value in assay [1] (3.13 μM compound), in assay [1] (12.50 μM compound) and in assay [1] (50.00 μM compound) were 11%, 15% and 11%, respectively.

As for Lycorine hydrochloride, the “% B3T rescue” value in assay [1] (0.78 μM compound) came to 37%; in assay [1] (3.13 μM compound), 77%; in assay [1] (12.50 μM compound), 83%; in assay [1] (50.00 μM compound), 79%. The “% MAP2 rescue” value is listed as 57% in assay [1] (0.78 μM compound), 99% in assay [1] (3.13 μM compound), 93% in assay [1] (12.50 μM compound) and 88% in assay [1] (50.00 μM compound). Moreover, the “% Synapse rescue” value in assay [1] (0.78 μM compound) amounted to 43%; in assay [1] (3.13 μM compound), 80%; in assay [1] (12.50 μM compound), 77%; in assay [1] (50.00 μM compound), 75%.
